Reference: patent publication US20080070949A1, “POLYMORPHS OF RIMONABANT” (Cipla Limited, priority 2006, published 2008)

Assays:
Format in all cases: physicochemical
[1] = Comparative intrinsic dissolution study (HPLC-UV method); settings: 900 ml of 1% Sodium Lauryl Sulphate in 0.05 M NaH2PO4 buffer pH 6.6, 50 RPM, 37° C.
Description: Intrinsic dissolution was studied using an HPLC-UV method with the following parameters:
Dissolution media:—900 ml of 1% Sodium Lauryl Sulphate (SLS) in buffer.
Buffer: 0.05 M NaH2PO4 pH 6.6 with NaOH
Mobile Phase:Buffer:Acetonitrile 30:70 Buffer 0.02 M NaH2PO4 0.1% Triethylamine pH 2.5 with phosphoric acid.
Column: YMC Pack Pro 18 15 cm.
Pressure applied for preparation of pellet=2.5 tonns for 5 mins.
Filter=Whatman 0.45 micron.
The results of the intrinsic dissolution study are illustrated in the graph in FIG. 5.

[2] = Long term stability testing; settings: 30±2C., 65±5% relative humidity
Description: (§1) Long term and accelerated stability testing was carried out on crystalline rimonabant Form C.
(§2) Each sample was hermetically sealed in double HMHDPE bags and placed in fibre drum. Quantity of sample=0.8 gm per analysis. Storage conditions (long term)=30±2C., 65±5% relative humidity. Storage conditions (accelerated)=40±2° C., 75±5% relative humidity.

[3] = Accelerated stability testing; settings: 40±2° C., 75±5% relative humidity
Description: as §1, §2

[4] = initially, at 1 month, at 2 months and at 3 months

Compound: Cc1c(C(=O)NN2CCCCC2)nn(-c2ccc(Cl)cc2Cl)c1-c1ccc(Cl)cc1 [amorphous, N-piperidino-5-(4-chlorophenyl)-1-(2,4-dichlorophenyl)-4-methyl-3-pyrazolecarboxamide]
- order of intrinsic dissolution [1]: amorphous >Form C >Form I

Compound: Cc1c(C(=O)NN2CCCCC2)nn(-c2ccc(Cl)cc2Cl)c1-c1ccc(Cl)cc1 [Form C, N-piperidino-5-(4-chlorophenyl)-1-(2,4-dichlorophenyl)-4-methyl-3-pyrazolecarboxamide]
- Assay (98.0%–102.0% w/w) ([2]; Initial): 99.86 % w/w
- Chromatographic purity by HPLC Individual impurity NMT 0.10% ([2]; Initial): 0.08%
- Chromatographic purity by HPLC Total impurities NMT 1.00% ([2]; Initial): 0.20%
- Water Content (By KF) NMT 5.0% w/w ([2]; Initial): 3.08 % w/w
- description of sample ([2]; initially and at 3 months): white colour powder
- polymorphic identity confirmed by XRPD, IR and DSC ([2]; initially and at 3 months): Form C
- Assay (98.0%–102.0% w/w) ([2]; period of keeping (3 months)): 99.13 % w/w
- Chromatographic purity by HPLC Individual impurity NMT 0.10% ([2]; period of keeping (3 months)): 0.08%
- Chromatographic purity by HPLC Total impurities NMT 1.00% ([2]; period of keeping (3 months)): 0.20%
- Remarks ([2]; period of keeping (3 months)): Product is stable
- Water Content (By KF) NMT 5.0% w/w ([2]; period of keeping (3 months)): 3.08 % w/w
- Assay (98.0%–102.0% w/w) ([3]; 1 Month): 101.36 % w/w
- Chromatographic purity by HPLC Individual impurity NMT 0.10% ([3]; 1 Month): 0.08%
- Chromatographic purity by HPLC Total impurities NMT 1.00% ([3]; 1 Month): 0.16%
- Water Content (By KF) NMT 5.0% w/w ([3]; 1 Month): 3.94 % w/w
- Assay (98.0%–102.0% w/w) ([3]; 2 Months): 100.67 % w/w
- Chromatographic purity by HPLC Individual impurity NMT 0.10% ([3]; 2 Months): 0.08%
- Chromatographic purity by HPLC Total impurities NMT 1.00% ([3]; 2 Months): 0.21%
- Water Content (By KF) NMT 5.0% w/w ([3]; 2 Months): 4.27 % w/w
- Assay (98.0%–102.0% w/w) ([3]; 3 Months): 99.45 % w/w
- Chromatographic purity by HPLC Individual impurity NMT 0.10% ([3]; 3 Months): 0.08%
- Chromatographic purity by HPLC Total impurities NMT 1.00% ([3]; 3 Months): 0.20%
- Water Content (By KF) NMT 5.0% w/w ([3]; 3 Months): 4.07 % w/w
- Assay (98.0%–102.0% w/w) ([3]; Initial): 99.86 % w/w
- Chromatographic purity by HPLC Individual impurity NMT 0.10% ([3]; Initial): 0.08%
- Chromatographic purity by HPLC Total impurities NMT 1.00% ([3]; Initial): 0.20%
- Water Content (By KF) NMT 5.0% w/w ([3]; Initial): 3.08 % w/w
- description of sample [3, 4]: white colour powder
- polymorphic identity confirmed by XRPD, IR and DSC [3, 4]: Form C
